In patent publication US11524934B2, “Phenylamine compounds” (PI INDUSTRIES LTD., priority 2017, dated 2022):

Assays:
[1] = test system: Septoria lycopersici; assay: Septoria lycopersici (Leaf spot of tomato) in vitro test, radial growth on Potato Dextrose Agar; conditions: 168 h, read-out: control
Experimental: Septoria lycopersici (Leaf spot of tomato): Compounds were dissolved in 0.3% DMSO & then added to Potato Dextrose Agar medium just prior to dispensing it into Petri dishes. 5 ml medium with compound in the desired concentration was dispensed into 60 mm sterile petri-plates. After solidification each plate was seeded with 5 mm size mycelial disc taken form periphery of actively growing virulent culture plate. Plates were incubated in growth chambers at 25° C. temperature & 70% Relative Humidity for seven days and radial growth was measured.

[2] = test system: Colletotrichum capsici; assay: Colletotrichum capsici (anthracnose) in vitro test, radial growth on Potato Dextrose Agar; conditions: Colletotrichum truncatum, 168 h, read-out: control
Experimental: Colletotrichum capsici (anthracnose): Compounds were dissolved in 0.3% DMSO & then added to Potato Dextrose Agar medium just prior to dispensing it into Petri dishes. 5 ml medium with compound in the desired concentration was dispensed into 60 mm sterile petri-plates. After solidification each plate was seeded with 5 mm size mycelial disc taken form periphery of actively growing virulent culture plate. Plates were incubated in growth chambers at 25° C. temperature & 60% Relative Humidity for seven days and radial growth was measured.

[3] = test system: Botrytis cinerea; assay: Botrytis cinerea (Gray mold) in vitro test, radial growth on Potato Dextrose Agar; conditions: 168 h, read-out: control
Experimental: (§1) Compounds of present invention were assessed for activity against one or more of the following: Biological Test Examples, in vitro test
Botrytis cinerea (Gray mold): Compounds were dissolved in 0.3% DMSO & then added to Potato Dextrose Agar medium just prior to dispensing it into Petri dishes. 5 ml medium with compound in the desired concentration was dispensed into 60 mm sterile Petri-plates. After solidification each plate was seeded with 5 mm size mycelial disc taken form periphery of actively growing virulent culture plate. Plates were incubated in growth chambers at 22° C. temperature & 90% Relative Humidity for seven days and radial growth was measured.

[4] = test system: Rhizoctonia solani; conditions: 168 h, read-out: control
Experimental: Rhizoctonia solani (Rice sheath blight/Potato black scurf): Compounds were dissolved in 0.3% DMSO & then added to Potato Dextrose Agar medium just prior to dispensing it into Petri dishes. 5 ml medium with compound in the desired concentration was dispensed into 60 mm sterile Petri-plates. After solidification each plate was seeded with 5 mm size mycelial disc taken form periphery of actively growing virulent culture plate. Plates were incubated in growth chambers at 25° C. temperature & 60% Relative Humidity for seven days and radial growth was measured.

[5] = test system: Alternaria solani; assay: Alternaria solani (early blight of tomato/potato) in vitro test, radial growth on Potato Dextrose Agar; conditions: 168 h, read-out: control
Experimental: as §1

[6] = test system: Fusarium culmorum; assay: Fusarium culmorum (Foot rot of cereals) in vitro test, radial growth on Potato Dextrose Agar; type: cell-based; conditions: 168 h, read-out: control
[7] = test system: Phakopsora pachyrhizi; assay: Phakopsora pachyrhizi test in soybean (in vivo on plants), preventive activity; conditions: preventive spray on soybean plants, inoculated one day after treatment, disease severity rated vs untreated check
Experimental: Example 8 (In Vivo on Plants): Phakopsora pachyrhizi Test in Soybean
Compounds were dissolved in 2% DMSO/Acetone & then mixed with water to the calibrated spray volume of 50 ml and poured into the spray bottles for further applications.
To test the preventive activity of compounds, healthy young soybean plants raised in the greenhouse were sprayed with active compound preparation at the stated application rates inside the spray cabinets using hallowcone nozzles. One day after treatment, the plants were inoculated with spore suspension containing 2.1×10^6 Phakopsora pachyrhizi inoculum. The inoculated plants were then kept in greenhouse chamber at 25° C. temperature & 90% Relative Humidity for disease expression.
A visual assessment of compound's performance was carried out by rating the disease severity (0-100% scale) on treated plants on 3, 7, 10 & 15 days after application. Efficacy (% control) of the compounds was calculated by comparing the disease rating in the treatment with the one of the untreated control. The sprayed plants were also assessed for compound's plant compatibility by recording symptoms like necrosis, chlorosis & stunting.

[8] = test system: Pyricularia oryzae; assay: microbe, parasite or virus in culture; type: cell-based; conditions: 168 h, read-out: control

Compound | inhibition of growth at 300 ppm [1] [%] | inhibition of growth at 300 ppm [2] [%] | inhibition of growth at 300 ppm [3] [%] | inhibition of growth at 300 ppm [4] [%] | inhibition of growth at 300 ppm [5] [%] | inhibition of growth at 300 ppm [6] [%] | pest or weed control at 500 ppm [7] [%] | inhibition of growth at 300 ppm [8] [%]
CCN(C)C=Nc1cc(C)c(C(=O)COc2ccccc2)cc1C [Compound 2, N′-(2,5-dimethyl-4-(2-phenoxyacetyl)phenyl)-N-ethyl-N-methylformimidamide] | > 70 | > 70 | > 70 | > 70 | > 70 | 70 | > 90 | > 70
CCN(C)C=Nc1cc(C)c(C(=O)CSc2ccc(C)c(C)c2)cc1C [Compound 11, N′-(4-(2-((3,4-dimethylphenyl)thio)acetyl)-2,5-dimethylphenyl)-N-ethyl-N-methylformimidamide] | > 70 | > 70 | > 70 | > 70 | > 70 | 70 | > 90 | > 70
CCN(C)C=Nc1cc(C)c(C(=O)COc2cccc(C)c2)cc1C [Compound 12, N′-(2,5-dimethyl-4-(2-(m-tolyloxy)acetyl)phenyl)-N-ethyl-N-methylformimidamide] | > 70 | > 70 | > 70 | > 70 | > 70 | 70 | > 90 | > 70
CCN(C)C=Nc1cc(C)c(C(=O)COc2cccc(Cl)c2)cc1C [Compound 13, N′-(4-(2-(3-chlorophenoxy)acetyl)-2,5-dimethylphenyl)-N-ethyl-N-methylformimidamide] | > 70 | > 70 | > 70 | > 70 | > 70 | 70 | > 90 | > 70
CCN(C)C=Nc1cc(C)c(C(=O)CN(C)c2ccc(Cl)cc2)cc1C [Compound 84, N′-(4-(N-(4-chlorophenyl)-N-methylglycyl)-2,5-dimethylphenyl)-N-ethyl-N-methylformimidamide] | > 70 | > 70 | > 70 | > 70 | > 70 | 70 |  | > 70
CCN(C)C=Nc1cc(C)c(C(=O)COc2c(C)cccc2Br)cc1C [Compound 88, N′-(4-(2-(2-bromo-6-methylphenoxy)acetyl)-2,5-dimethylphenyl)-N-ethyl-N-methylformimidamide] | > 70 | > 70 | > 70 | > 70 | > 70 | 70 |  | > 70
CCN(C)C=Nc1cc(C)c(C(=O)CSc2ccc(F)cc2F)cc1C [Compound 102, N′-(4-(2-((2,4-difluorophenyl)thio)acetyl)-2,5-dimethylphenyl)-N-ethyl-N-methylformimidamide] | > 70 | > 70 | > 70 | > 70 | > 70 | 70 |  | > 70
CCN(C)C=Nc1cc(C)c(C(=O)CSc2c(F)cccc2F)cc1C [Compound 103, N′-(4-(2-((2,6-difluorophenyl)thio)acetyl)-2,5-dimethylphenyl)-N-ethyl-N-methylformimidamide] | > 70 | > 70 | > 70 | > 70 | > 70 | 70 |  | > 70
